Values of other authors, collected in patent publication US9592699B2, “Dampening fluid for digital lithographic printing” (Xerox Corporation, priority 2011, dated 2017).

Columns and labels:
[1] = not given; remark: listed apart in the source
[2] = not given; remark: listed apart in the source
[3] = not given; remark: listed apart in the source
[4] = not given; remark: listed apart in the source

In the case of `COC(F)(C(F)(F)C(F)(F)F)C(F)(C(F)(F)F)C(F)(F)F` (centres unmarked) [(I-a), 1,1,1,2,2,3,4,5,5,5-decafluoro-3-methoxy-4-(trifluoromethyl)pentane], the “Surface Tension at 25° C.” value is given as 15 dynes/cm, the “Kinematic Viscosity at 25° C.” value [1] is given as 0.71 cSt and the “Heat of Vaporization at boiling point” value [2] is given as 101.7 kJ/kg. For the same compound, the “Vapor Pressure at 25° C.” value [3] was 44.9 mmHg.
For `CCOC(F)(C(F)(F)C(F)(F)C(F)(F)F)C(F)(C(F)(F)F)C(F)(F)F` (centres unmarked) [(I-b), 3-ethoxy-1,1,1,2,3,4,4,5,5,6,6,6-dodecafluoro-2-(trifluoromethyl)hexane], the “Surface Tension at 25° C.” value is given as 16.2 dynes/cm, the “Kinematic Viscosity at 25° C.” value [1] is given as 0.77 cSt and the “Heat of Vaporization at boiling point” value [2] is given as 88.5 kJ/kg.
For `CC(OC(F)(F)C(F)C(F)(F)F)C(F)(F)C(F)C(F)(F)F` (centres unmarked) [(I-c), 1,1,1,2,3,3-Hexafluoro-4-(1,1,2,3,3,3-hexafluoropropoxy)pentane], the “Surface Tension at 25° C.” value is listed as 17.7 dynes/cm, the “Kinematic Viscosity at 25° C.” value [1] is listed as 1.07 cSt and the “Heat of Vaporization at boiling point” value [2] is listed as 115.6 kJ/kg. The “Solubility in Water” value [4] was under 10 ppm.
For `COC(F)(F)C(F)(F)C(F)(F)F` [(I-f), 1-methoxyheptafluoropropane], the “Surface Tension at 25° C.” value is given as 12.4 dynes/cm, the “Kinematic Viscosity at 25° C.” value [1] is given as 0.32 cSt and the “Heat of Vaporization at boiling point” value [2] is given as 142 kJ/kg. For the same compound, the “Vapor Pressure at 25° C.” value [3] was 484.5 mmHg.
In the case of `C[Si](C)(C)O[Si](C)(C)C` [(II-a), hexamethyldisiloxane], the “Surface Tension at 25° C.” value is given as 15.9 dynes/cm, the “Kinematic Viscosity at 25° C.” value [1] is given as 0.65 cSt and the “Heat of Vaporization at boiling point” value [2] is given as 200.8 kJ/kg. The “Vapor Pressure at 25° C.” value [3] was 35 mmHg.
In the case of `C[Si](C)(C)O[Si](C)(C)O[Si](C)(C)C` [(II-b), octamethyltrisiloxane], the “Surface Tension at 25° C.” value is listed as 17.4 dynes/cm, the “Kinematic Viscosity at 25° C.” value [1] is listed as 1 cSt and the “Heat of Vaporization at boiling point” value [2] is listed as 158 kJ/kg. For the same compound, the “Vapor Pressure at 25° C.” value [3] was 4 mmHg.
For `C[Si]1(C)O[Si](C)(C)O[Si](C)(C)O[Si](C)(C)O1` [(III-a), octamethylcyclotetrasiloxane], the “Surface Tension at 25° C.” value is given as 18.4 dynes/cm, the “Kinematic Viscosity at 25° C.” value [1] is given as 2.3 cSt and the “Heat of Vaporization at boiling point” value [2] is given as 133 kJ/kg. The “Vapor Pressure at 25° C.” value [3] was 1.5 mmHg.
In the case of `C[Si]1(C)O[Si](C)(C)O[Si](C)(C)O[Si](C)(C)O[Si](C)(C)O1` [(III-b), decamethylcyclopentasiloxane], the “Surface Tension at 25° C.” value is given as 18.0 dynes/cm, the “Kinematic Viscosity at 25° C.” value [1] is given as 3.9 cSt and the “Heat of Vaporization at boiling point” value [2] is given as 157 kJ/kg. The “Vapor Pressure at 25° C.” value [3] was 1 mmHg.
For `C[Si](C)(C)O[Si](C)(O[Si](C)(C)C)O[Si](C)(C)C` [(IV-a), methyltris(trimethylsiloxy)silane], the “Surface Tension at 25° C.” value is given as 16.8 dynes/cm, the “Kinematic Viscosity at 25° C.” value [1] is given as 1.5 cSt and the “Vapor Pressure at 25° C.” value [3] is given as under 10 mmHg.
For `O` [Water, reference compound], the surface tension is given as “around 70 dynes/cm”, the “Surface Tension at 25° C.” value is given as 72 dynes/cm and the kinematic viscosity ([1]; 1 mm^2/sec) is given as “about 1 centiStoke”. The “Kinematic Viscosity at 25° C.” value [1] was 1 cSt.
